Test [1] concerns the target T1, DNA topoisomerase II (Homo sapiens, UniProt P11388+Q02880). In words: Inhibition of DNA topoisomerase 2 in human MCF7 cells at 25 uM incubated for 18 to 24 hrs by kinase assay relative to control. Type of test: cell-based.
Test [2] has as its target T1, DNA topoisomerase II. Briefly: Inhibition of DNA topoisomerase 2 in human MCF7 cells at 5 uM incubated for 18 to 24 hrs by kinase assay relative to control. Type of test: cell-based.
For test [3], the target named is T1, DNA topoisomerase II. Briefly: Inhibition of DNA topoisomerase 2 in human HeLa cells incubated for 18 to 24 hrs by kinase assay. The format is cell-based.
Test [4] addresses T1, DNA topoisomerase II. In words: Inhibition of DNA topoisomerase 2 in human MCF7 cells incubated for 18 to 24 hrs by kinase assay. Type of test: cell-based.
Test [5] addresses T1, DNA topoisomerase II. In words: Inhibition of DNA topoisomerase 2 in human HeLa cells at 1 uM incubated for 18 to 24 hrs by kinase assay relative to control. The format is cell-based.
Test [6] concerns the target T1, DNA topoisomerase II. Briefly: Inhibition of DNA topoisomerase 2 in human HeLa cells at 0.2 uM incubated for 18 to 24 hrs by kinase assay relative to control. The format is cell-based.
Test [7] relates to HeLa. In words: Cytotoxicity against human HeLa cells assessed as increase in growth inhibition by measuring decrease in cell viability incubated for 72 hrs and measured after 2 hrs by microplate reader based WST-1 assay. Type of test: functional. The following applies: Homo sapiens, HeLa; read-out: IC50. (Tetrazolium assays rely on reduction of a dye to a coloured formazan, in cell work by metabolically active cells.)

Test [8] relates to MCF7. Briefly: Cytotoxicity against human MCF7 cells assessed as increase in growth inhibition by measuring decrease in cell viability incubated for 72 hrs and measured after 2 hrs by microplate reader based WST-1 assay. The format is functional. Particulars: Homo sapiens, MCF7; read-out: IC50; call rule not given here.
The test system of test [9] is HeLa. Briefly: Induction of apoptosis in human HeLa cells assessed as increase in caspase 9 activation by measuring fold increase in caspase 9 level by fluorescence based solid phase sandwich ELISA. Type of test: functional. For orientation: An ELISA detects its analyte on a solid surface through an enzyme-linked reagent.
In test [10] the test system is HepG2. In words: Cytotoxicity against human HepG2 cells assessed as increase in growth inhibition by measuring decrease in cell viability incubated for 72 hrs and measured after 2 hrs by microplate reader based WST-1 assay. Type of test: functional.
In test [11] the target is T1, DNA topoisomerase II. In words: Inhibition of DNA topoisomerase 2 in human HeLa cells at 25 uM incubated for 18 to 24 hrs by kinase assay relative to control. Type of test: cell-based.
Test [12] has as its target T2, Epidermal growth factor receptor (Homo sapiens, UniProt P00533). Briefly: Inhibition of EGFR-TK in human HeLa cells overexpressing EGFR incubated for 18 to 24 hrs by kinase assay. The format is cell-based.
The subject of test [13] is HeLa. Briefly: Induction of apoptosis in human HeLa cells assessed as increase in caspase 3 activation by measuring fold increase in caspase 3 level by fluorescence based solid phase sandwich ELISA. The format is functional.
Test [14] addresses T1, DNA topoisomerase II. Briefly: Inhibition of DNA topoisomerase 2 in human HeLa cells at 5 uM incubated for 18 to 24 hrs by kinase assay relative to control. Type of test: cell-based.
Test [15] concerns HCT-116. Briefly: Cytotoxicity against human HCT116 cells assessed as increase in growth inhibition by measuring decrease in cell viability incubated for 72 hrs and measured after 2 hrs by microplate reader based WST-1 assay. Type of test: functional.
Test [16] concerns the target T2, Epidermal growth factor receptor. Briefly: Inhibition of EGFR-TK in human MCF7 cells overexpressing EGFR incubated for 18 to 24 hrs by kinase assay. Type of test: cell-based.
The subject of test [17] is MCF7. Briefly: Induction of apoptosis in human MCF7 cells assessed as increase in caspase 9 activation by measuring fold increase in caspase 9 level by fluorescence based solid phase sandwich ELISA. The format is functional.
Test [18] concerns MCF7. Briefly: Cell cycle arrest in human MCF7 cells assessed as accumulation at G0/G1 phase at IC50 after 24 hrs by propidium iodide staining based FACS analysis (reference value: 67.39%). Type of test: functional. (A flow cytometer gives signals particle by particle.)
Test [19] deals with MCF7. Briefly: Cytotoxicity against human MCF7 cells assessed as cell growth inhibition at 3.125 to 100 uM incubated for 72 hrs and measured after 2 hrs by microplate reader based WST-1 assay relative to control. Type of test: functional.
Test [20] deals with MCF7. Briefly: Induction of apoptosis in human MCF7 cells assessed as early apoptotic cells after 24 hrs by Annexin V-FITC/propidium iodide staining-based FACS analysis (reference value: 0.29%). Type of test: functional.
In test [21] the test system is MCF7. Briefly: Induction of apoptosis in human MCF7 cells assessed as increase in caspase 3 activation by measuring fold increase in caspase 3 level by fluorescence based solid phase sandwich ELISA. Type of test: functional.
For test [22], the system named is HepG2. Briefly: Cytotoxicity against human HepG2 cells assessed as cell growth inhibition at 3.125 to 100 uM incubated for 72 hrs and measured after 2 hrs by microplate reader based WST-1 assay relative to control. The format is functional.
Test [23] relates to MCF7. In words: Cell cycle arrest in human MCF7 cells assessed as accumulation at S phase at IC50 after 24 hrs by propidium iodide staining based FACS analysis (reference value: 27.13%). The format is functional.
Test [24] addresses T1, DNA topoisomerase II. Briefly: Inhibition of DNA topoisomerase 2 in human MCF7 cells at 1 uM incubated for 18 to 24 hrs by kinase assay relative to control. Type of test: cell-based.
Test [25] deals with MCF7. In words: Induction of apoptosis in human MCF7 cells assessed as late apoptotic cells after 24 hrs by Annexin V-FITC/propidium iodide staining-based FACS analysis (reference value: 0.22%). The format is functional.
Test [26] deals with HeLa. Briefly: Cytotoxicity against human HeLa cells assessed as cell growth inhibition at 3.125 to 100 uM incubated for 72 hrs and measured after 2 hrs by microplate reader based WST-1 assay relative to control. The format is functional.
In test [27] the test system is MCF7. In words: Cell cycle arrest in human MCF7 cells assessed as accumulation at pre G1/apoptotic phase at IC50 after 24 hrs by propidium iodide staining based FACS analysis (reference value: 0.66%). The format is functional.
Test [28] relates to MCF7. In words: Cell cycle arrest in human MCF7 cells assessed as accumulation at G2/M phase at IC50 after 24 hrs by propidium iodide staining based FACS analysis (reference value: 4.82%). The format is functional.
Test [29] has as its system MCF7. In words: Induction of apoptosis in human MCF7 cells after 24 hrs by Annexin V-FITC/propidium iodide staining-based FACS analysis. The format is functional, cell-based.
Test [30] addresses T1, DNA topoisomerase II. In words: Inhibition of DNA topoisomerase 2 in human MCF7 cells at 0.2 uM incubated for 18 to 24 hrs by kinase assay relative to control. The format is cell-based.
Test [31] has as its system HCT-116. Briefly: Cytotoxicity against human HCT116 cells assessed as cell growth inhibition at 3.125 to 100 uM incubated for 72 hrs and measured after 2 hrs by microplate reader based WST-1 assay relative to control. The format is functional.
In test [32] the test system is MCF7. Briefly: Induction of apoptosis in human MCF7 cells assessed as necrotic cells after 24 hrs by Annexin V-FITC/propidium iodide staining-based FACS analysis (reference value: 0.15%). The format is functional.
Test [33] deals with MCF7. In words: Induction of apoptosis in human MCF7 cells assessed as viable cells after 24 hrs by Annexin V-FITC/propidium iodide staining-based FACS analysis (reference value: 99.34%). The format is functional.

The record followed here is ChEMBL document CHEMBL4396926, “Design, Synthesis and Anticancer Evaluation of New Substituted Thiophene-Quinoline Derivatives” (Bioorg Med Chem, 2019).

Molecules are shown by their SMILES.

T2 sequence (P00533 whole entry): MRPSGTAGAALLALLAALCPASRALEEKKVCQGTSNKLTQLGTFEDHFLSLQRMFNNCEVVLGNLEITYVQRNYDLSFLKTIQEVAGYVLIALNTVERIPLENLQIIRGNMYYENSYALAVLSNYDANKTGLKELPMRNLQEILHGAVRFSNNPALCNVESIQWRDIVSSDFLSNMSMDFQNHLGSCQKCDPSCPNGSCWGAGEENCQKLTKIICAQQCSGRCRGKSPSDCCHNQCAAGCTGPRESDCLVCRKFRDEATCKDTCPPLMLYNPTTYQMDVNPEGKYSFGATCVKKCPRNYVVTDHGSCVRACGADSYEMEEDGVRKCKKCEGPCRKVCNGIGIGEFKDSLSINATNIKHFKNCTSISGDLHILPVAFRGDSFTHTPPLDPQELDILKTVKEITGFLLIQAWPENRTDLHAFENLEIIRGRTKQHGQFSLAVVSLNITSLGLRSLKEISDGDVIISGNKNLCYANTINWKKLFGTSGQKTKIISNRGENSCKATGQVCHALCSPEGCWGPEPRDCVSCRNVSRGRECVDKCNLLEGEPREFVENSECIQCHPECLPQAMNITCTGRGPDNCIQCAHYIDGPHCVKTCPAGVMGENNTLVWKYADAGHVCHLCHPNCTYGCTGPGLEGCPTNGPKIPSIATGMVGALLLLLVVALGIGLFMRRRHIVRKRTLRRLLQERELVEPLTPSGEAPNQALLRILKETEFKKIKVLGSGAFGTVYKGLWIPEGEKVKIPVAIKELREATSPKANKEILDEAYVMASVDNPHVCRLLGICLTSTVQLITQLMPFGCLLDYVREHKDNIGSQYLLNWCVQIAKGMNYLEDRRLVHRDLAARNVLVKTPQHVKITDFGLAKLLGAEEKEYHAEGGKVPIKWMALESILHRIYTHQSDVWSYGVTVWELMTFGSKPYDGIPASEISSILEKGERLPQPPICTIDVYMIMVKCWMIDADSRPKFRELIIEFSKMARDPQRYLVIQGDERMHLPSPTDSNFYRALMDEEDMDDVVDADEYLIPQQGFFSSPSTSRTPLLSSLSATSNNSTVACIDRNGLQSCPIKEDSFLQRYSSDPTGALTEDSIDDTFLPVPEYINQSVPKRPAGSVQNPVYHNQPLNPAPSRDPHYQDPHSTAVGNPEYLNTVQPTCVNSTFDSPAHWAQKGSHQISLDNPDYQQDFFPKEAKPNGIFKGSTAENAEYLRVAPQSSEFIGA

The term inhibition denotes the percentage by which the read-out fell short of the control. Lower therefore signals a weak effect. Broadly, the IC50 is the concentration at which inhibition is half-maximal. `CC[C@@]1(O)C(=O)OCc2c1cc1n(c2=O)Cc2cc3c(CN(C)C)c(O)ccc3nc2-1` [TOPOTECAN]: the inhibition came out at 92.8% at DNA topoisomerase II [1], 85.6% against DNA topoisomerase II [2], 66.5% on DNA topoisomerase II [5] and 32% at DNA topoisomerase II [6]. The IC50 against DNA topoisomerase II [3] came to 0.73 µM; against DNA topoisomerase II [4], 0.48 µM.

Turning to `OC(c1cccs1)c1cc2ccccc2nc1Cl` (stereo not drawn), the IC50 in the test with HeLa [7] was determined as 17.5 µM; in the test on MCF7 [8], 80.6 µM; in the test with HepG2 [10] (Homo sapiens, HepG2, read-out: IC50), 80.8 µM; in test [12], 6.3 µM; against DNA topoisomerase II [3] it was 4.95 µM; in the test with HCT-116 [15] (Homo sapiens, HCT-116, read-out: IC50), 69.3 µM. In addition, the “fold change (FC)” value turned out to be 72.6 in the test with HeLa [9] and 12.8 in the test with HeLa [13]. The inhibition against DNA topoisomerase II [11] was 80.7%; against DNA topoisomerase II [5], 20%; at DNA topoisomerase II [6] it was 3.85%; on DNA topoisomerase II [14], 45%.

For `Fc1ccc(COC(c2cccs2)c2cc3ccccc3nc2Cl)cc1` (stereo not drawn), the inhibition was found to be 93.7% on DNA topoisomerase II [1], 88.5% on DNA topoisomerase II [2], 70.8% at DNA topoisomerase II [24] and 43.3% against DNA topoisomerase II [30]. In addition, the half-inhibitory concentration (IC50) was 2.75 µM in [16]; 73.9 µM in the test with HeLa [7]; 38.4 µM in the test on MCF7 [8]; “Not Active” in the test on HepG2 [10] (hepg2); 0.23 µM against DNA topoisomerase II [4]; “Not Active” with HCT-116 [15] (hct-116). Also, the “fold change (FC)” value in the test on MCF7 [17] was 40.6; in the test on MCF7 [21], 30.8. Moreover, the Activity with MCF7 [18] is 47.2%; with MCF7 [20] it was 7.03%; in the test with MCF7 [23], 17.19%; in the test on MCF7 [25] it was 8.42%; in the test on MCF7 [27] it was 16.28%; in the test on MCF7 [28] it was 19.33%. Moreover, the figures for the Activity result in the test with MCF7 [29], in the test on MCF7 [32] and with MCF7 [33] were “Dose-dependent effect”, 0.83% and 83.96%, respectively. Besides, the “growth inhibition (GI)” value with MCF7 [19] was 64.97%; in the test on HepG2 [22] it was 30.53%; in the test with HeLa [26], 66.21%; in the test with HCT-116 [31] it was less than 10%.
